Results as given in patent US11696917B2, “Agent enhancing antitumor effect using pyrazolo[3,4-d]pyrimidine compound” (TAIHO PHARMACEUTICAL CO., LTD., priority 2017, dated 2023).

System: NCI-N87 (human stomach cancer)
Experiment: Combination of Compound 1 and other antitumor agents (in vitro), CellTiter-Glo, median effect method
Assay type: cell-based
Procedure: The supplier of each reagent, the suppliers of tumor cell lines, the media used, and the numbers of cells to be inoculated are shown in the tables below.
The cells were inoculated at 20 μL/well to a 384-well culture plate (Corning Inc.). The plate inoculated with the cells were cultured in an incubator set to 37° C. and 5% CO2. On the day following inoculation, each of mixed solutions of Compound 1 and each other antitumor agent at varying combinations of concentrations was added to the cells. Specifically, 8 serial dilutions (including (0 nM)) of Compound 1 and 10 serial dilutions (including (0 nM)) of the other antitumor agent were prepared using Leibovitz's L-15 medium containing 10% FBS, or ATCC formulated RPMI-1640 medium containing 10% FBS. Drug solutions in which equal amounts of the respective serial dilutions of the compounds were dispensed were mixed at a ratio of 1:1 to prepare a total of 80 mixed drug solutions including every combination. Each of these mixed drug solutions was added at 5 μL/well (N=4) to the plate, followed by further culture for 3 days under conditions of 37° C. and 5% CO2.
Three days later, CellTiter-Glo™ 2.0 Reagent (Promega Corporation) was added thereto at 25 μL/well, and chemiluminescence was measured using a plate reader (EnSpire® Multimode Plate Reader, PerkinElmer Japan Co., Ltd.).
The enhancement of an effect by combined use of the drugs was evaluated according to a method known in the art (a method described in Trends Pharmacol. Sci., 4, 450-454, 1983 or Pharmacol Rev., 58 (3), 621-81, 2006).
An average value from 4 wells of each combination was calculated from the obtained data, and a cell survival rate normalized against a control supplemented with a medium containing a vehicle was calculated. A Fa (fraction of affect) value was calculated by subtracting the cell survival rate from 1. Median effect analysis software CalcuSyn 2.0 (CalcuSyn, Inc.) for calculation by the median effect method was used in the calculation of CI.
As for the combinations of the concentrations of both the drugs for calculating CI, a Fa value closer to 1 presumably means a concentration range in which one of the drugs had too strong an effect, and a Fa value closer to 0 presumably means a concentration range in which any of the drugs had too weak an effect. Since these concentration ranges were not appropriate for the discussion of a synergistic effect, combinations that satisfied 0.2 S Fa 0.8 were extracted from the combinations of the respective concentrations of Compound 1 and the other antitumor agent on the basis of the calculated Fa value.
An effect of combined use was determined as shown in the table below (Pharmacol Rev., 58 (3), p. 621-81, 2006).

[1] = Compound 1 0.137 nM + Cisplatin 2062 nM, ratio 1:15030, NCI-N87
[2] = Compound 1 0.137 nM + Gemcitabine 1.37 nM, ratio 1:10, NCI-N87
[3] = Compound 1 0.137 nM + Gemcitabine 4.12 nM, ratio 1:30, NCI-N87
[4] = Compound 1 0.137 nM + Gemcitabine 12.3 nM, ratio 1:90, NCI-N87
[5] = Compound 1 0.137 nM + Trifluridine 12346 nM, ratio 1:90000, NCI-N87
[6] = Compound 1 0.412 nM + Cisplatin 2062 nM, ratio 1:5010, NCI-N87
[7] = Compound 1 0.412 nM + Cisplatin 6185 nM, ratio 1:15030, NCI-N87
[8] = Compound 1 0.412 nM + FdUrd 4115 nM, ratio 1:10000, NCI-N87
[9] = Compound 1 0.412 nM + FdUrd 12346 nM, ratio 1:30000, NCI-N87
[10] = Compound 1 0.412 nM + FdUrd 37037 nM, ratio 1:90000, NCI-N87
[11] = Compound 1 0.412 nM + Trifluridine 1372 nM, ratio 1:3333, NCI-N87
[12] = Compound 1 0.412 nM + Trifluridine 4115 nM, ratio 1:10000, NCI-N87
[13] = Compound 1 0.412 nM + Trifluridine 12346 nM, ratio 1:30000, NCI-N87
[14] = Compound 1 0.412 nM + Trifluridine 37037 nM, ratio 1:90000, NCI-N87
[15] = Compound 1 1.24 nM + Cisplatin 6185 nM, ratio 1:5010, NCI-N87
[16] = Compound 1 1.24 nM + Cisplatin 18556 nM, ratio 1:15030, NCI-N87
[17] = Compound 1 1.24 nM + FdUrd 12346 nM, ratio 1:10000, NCI-N87
[18] = Compound 1 1.24 nM + FdUrd 37037 nM, ratio 1:30000, NCI-N87
[19] = Compound 1 1.24 nM + FdUrd 111111 nM, ratio 1:90000, NCI-N87
[20] = Compound 1 1.24 nM + Gemcitabine 1.37 nM, ratio 1:1.1, NCI-N87
[21] = Compound 1 1.24 nM + Gemcitabine 4.12 nM, ratio 1:3.3, NCI-N87
[22] = Compound 1 1.24 nM + Gemcitabine 12.3 nM, ratio 1:10, NCI-N87
[23] = Compound 1 1.24 nM + Gemcitabine 37.0 nM, ratio 1:30, NCI-N87
[24] = Compound 1 1.24 nM + Gemcitabine 111 nM, ratio 1:90, NCI-N87
[25] = Compound 1 1.24 nM + Paclitaxel 5.56 nM, ratio 1:4.5, NCI-N87
[26] = Compound 1 1.24 nM + Trifluridine 1372 nM, ratio 1:1111, NCI-N87
[27] = Compound 1 1.24 nM + Trifluridine 4115 nM, ratio 1:3333, NCI-N87
[28] = Compound 1 1.24 nM + Trifluridine 12346 nM, ratio 1:10000, NCI-N87
[29] = Compound 1 1.24 nM + Trifluridine 37037 nM, ratio 1:30000, NCI-N87
[30] = Compound 1 1.24 nM + Trifluridine 111111 nM, ratio 1:90000, NCI-N87
[31] = Compound 1 3.70 nM + Cisplatin 2062 nM, ratio 1:557, NCI-N87
[32] = Compound 1 3.70 nM + Cisplatin 6185 nM, ratio 1:1670, NCI-N87
[33] = Compound 1 3.70 nM + Cisplatin 18556 nM, ratio 1:5010, NCI-N87
[34] = Compound 1 3.70 nM + FdUrd 4115 nM, ratio 1:1111, NCI-N87
[35] = Compound 1 3.70 nM + FdUrd 12346 nM, ratio 1:3333, NCI-N87
[36] = Compound 1 3.70 nM + FdUrd 37037 nM, ratio 1:10000, NCI-N87
[37] = Compound 1 3.70 nM + FdUrd 111111 nM, ratio 1:30000, NCI-N87

SMILES: C=CC(=O)N1CCC[C@@H](n2nc(C(=O)Nc3ccc(CC(=O)N(C)C)c(C)c3C)c3c(N)ncnc32)C1 [Compound 1, (R)-1-(1-acryloylpiperidin-3-yl)-4-amino-N-(4-(2-(dimethylamino)-2-oxoethyl)-2,3-dimethylphenyl)-1H-pyrazolo[3,4-d]pyrimidine-3-carboxamide]
- CI [1]: 0.62
- Fa [1]: 0.39
- CI [2]: 0.03
- Fa [2]: 0.69
- CI [3]: 0.37
- Fa [3]: 0.68
- CI [4]: 0.01
- Fa [4]: 0.73
- CI [5]: 0.26
- Fa [5]: 0.43
- CI [6]: 0.64
- Fa [6]: 0.36
- CI [7]: 0.57
- Fa [7]: 0.55
- CI [8]: 0.39
- Fa [8]: 0.25
- CI [9]: 0.46
- Fa [9]: 0.30
- CI [10]: 0.63
- Fa [10]: 0.41
- CI [11]: 0.35
- Fa [11]: 0.26
- CI [12]: 0.65
- Fa [12]: 0.26
- CI [13]: 0.38
- Fa [13]: 0.41
- CI [14]: 0.34
- Fa [14]: 0.54
- CI [15]: 0.40
- Fa [15]: 0.60
- CI [16]: 0.42
- Fa [16]: 0.72
- CI [17]: 0.58
- Fa [17]: 0.33
- CI [18]: 0.70
- Fa [18]: 0.39
- CI [19]: 0.39
- Fa [19]: 0.54
- CI [20]: 0.07
- Fa [20]: 0.70
- CI [21]: 0.06
- Fa [21]: 0.71
- CI [22]: 0.04
- Fa [22]: 0.77
- CI [23]: 0.05
- Fa [23]: 0.73
- CI [24]: 0.05
- Fa [24]: 0.72
- CI [25]: 0.45
- Fa [25]: 0.50
- CI [26]: 0.78
- Fa [26]: 0.24
- CI [27]: 0.71
- Fa [27]: 0.31
- CI [28]: 0.37
- Fa [28]: 0.48
- CI [29]: 0.41
- Fa [29]: 0.55
- CI [30]: 0.68
- Fa [30]: 0.59
- CI [31]: 0.58
- Fa [31]: 0.54
- CI [32]: 0.38
- Fa [32]: 0.67
- CI [33]: 0.42
- Fa [33]: 0.75
- CI [34]: 0.82
- Fa [34]: 0.39
- CI [35]: 0.58
- Fa [35]: 0.47
- CI [36]: 0.41
- Fa [36]: 0.56
- CI [37]: 0.60
- Fa [37]: 0.57
